Literature values, collected in patent publication EP1450788B1, “USE OF COUMARIN OR ITS HYDROXY DERIVATIVE FOR THE TREATMENT OF MEDIUM OR SEVERE VASCULAR AND/OR LYMPHATIC EDEMA” (priority 2001, dated 2003).

Assays:
hepatic tissue = conditions: oral doses of about 200 mg/day
[1] = system: lymphoedema of the upper limbs; conditions: 90 mg/day versus 135 mg/day; lymphoedema of the upper limbs secondary to surgery and irradiation for breast cancer

| Compound | cytosolytic hepatocytic enzymes in the plasma (biochemical markers of the hepatic damage) (hepatic tissue) | haematic levels, transdermal route relative to oral route (transdermal administration versus oral route) [fold] | clinical efficacy (apparent benefits of the two coumarin dosages) [1] | haematic levels by the transdermic route (transdermal administration) |
| --- | --- | --- | --- | --- |
| O=c1ccc2ccccc2o1 [coumarin, 5,6-benzopyran-2-one] | high concentrations | 10 | No difference was found | – |
| O=c1ccc2ccc(O)cc2o1 [7-hydroxy-coumarin, 7-hydroxycoumarin] | – | – | – | a decrease of the haematic levels |
